Laboratory results reported in ChEMBL document CHEMBL1201862, “PubChem BioAssay data set” (2004).
Active and inactive are the calls of the source.

Tests used:
[1] = biological target: T1, Tyrosine-protein phosphatase non-receptor type 7 (Homo sapiens, UniProt P35236); assay: inhibitors of human HePTP phosphatase, […], biochemical, absorbance, leukemia target (AID 521); format: functional
T1 sequence (P35236 whole entry): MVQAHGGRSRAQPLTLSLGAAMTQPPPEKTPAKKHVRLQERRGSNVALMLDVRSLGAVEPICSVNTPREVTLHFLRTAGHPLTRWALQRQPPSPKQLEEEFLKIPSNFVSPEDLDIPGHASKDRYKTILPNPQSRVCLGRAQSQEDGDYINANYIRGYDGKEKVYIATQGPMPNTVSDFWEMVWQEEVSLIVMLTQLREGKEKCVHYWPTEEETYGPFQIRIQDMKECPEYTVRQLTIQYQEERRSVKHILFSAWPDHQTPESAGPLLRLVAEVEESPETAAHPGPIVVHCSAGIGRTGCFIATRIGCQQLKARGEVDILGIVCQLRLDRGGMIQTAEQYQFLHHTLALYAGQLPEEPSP

Troponin, cardiac muscle = Troponin, cardiac muscle (Homo sapiens, UniProt P19429+P45379+P63316); assay: Fluorescence-based biochemical high throughput dose response assay for activators of the calcium sensitivity of cardiac Regulated Thin Filaments (RTF). [Related pubchem assays (depositor defined):AID493008, AID493018, AID504382, AID504383]; format: protein-complex assay
[2] = A375 melanoma cell viability loss, dose response, counter-screen for MITF inhibitor project, CellTiter-Glo luminescence, dry powder, set 4 (AID 624364); format: functional, cell-based; details: A-375;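 note: A375 melanoma cells are MITF independent so this is a counter screen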
[3] = A375 melanoma cell cytotoxicity, dose response, counter-screen for MITF inhibitor project, CellTiter-Glo luminescence, dry powder, set 2 (AID 624489); format: functional, cell-based; details: A-375;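 note: actives are compounds lowering A375 viability meaning general cytotoxicity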
[4] = ADAM10 inhibitors, peptide cleavage, dose response, biochemical, QFRET (AID 743254);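 note: ADAM10 enzyme with the DM2 quenched FRET peptide as substrate; EDANS fluorescence gain as the protease cuts the substrate; inhibitor potency against ADAM10 proteolytic activity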
[5] = biological target: Disintegrin and metalloproteinase domain-containing protein 17 (Homo sapiens, UniProt P78536); assay: ADAM17 protease inhibitors, dose response, counter-screen for ADAM10 exosite inhibitor project, biochemical, quenched FRET substrate (AID 743253)
Transthyretin = Transthyretin (Homo sapiens, UniProt P02766); assay: Luminescence-based cell-based high throughput dose response assay to identify activators of Transthyretin (TTR) transcription.; format: functional
[6] = biological target: Matrix metalloproteinase-14 (Homo sapiens, UniProt P50281); assay: Dose Response confirmation of uHTS hits for a small molecule inhibitors of MT1-MMP activation in a fluorescence assay set 2.; format: functional
[7] = biological target: Eukaryotic translation initiation factor 4E (Mus musculus, UniProt P63073); assay: eIF4E–eIF4G protein interaction inhibitors, dose response, biochemical, TR-FRET (AID 855); format: functional;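 note: potency for disrupting eIF4E binding to eIF4GI seen as loss of FRET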
Paired box protein Pax-8 = Paired box protein Pax-8 (Homo sapiens, UniProt Q06710); assay: inhibitors of PAX8-driven TPO luciferase reporter, dose response, RMG-I cells, cherry-pick (AID 687027); format: functional, cell-based;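 note: luciferase reporter driven by Pax8 target thyroperoxidase promoter measured by SteadyGlo luminescence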
[8] = NIH:OVCAR-3 ovarian cancer cell cytotoxicity, dose response, PAX8 inhibitor project, plate reader, dry powder samples (AID 743044); format: functional, cell-based
[9] = IGROV1 ovarian cancer cell cytotoxicity, dose response, PAX8 inhibitor project, plate reader, dry powder samples (AID 743043); format: functional, cell-based; details: IGROV-1
[10] = cytotoxicity in OVCAR8 ovarian cancer cells, dose response, PAX8 project, cell-based, plate reader, dry powder samples (AID 743197); format: functional; details: OVCAR-8
[11] = Luminescence-based cell-based high throughput dose response assay to identify activators of the DAF-12 from the parasite S. stercoralis (ssDAF-12).; format: functional
[12] = biological target: T2, Oxysterols receptor LXR-beta (Homo sapiens, UniProt P55055); assay: LXR agonists, Gal4 luciferase reporter, dose response, counter-screen for ssDAF-12 agonist project, cell-based, luminescence, HEK293, S. stercoralis campaign (AID 720737); format: functional; details: read-out: IC50 (the source's name)
T2 sequence (P55055 whole entry): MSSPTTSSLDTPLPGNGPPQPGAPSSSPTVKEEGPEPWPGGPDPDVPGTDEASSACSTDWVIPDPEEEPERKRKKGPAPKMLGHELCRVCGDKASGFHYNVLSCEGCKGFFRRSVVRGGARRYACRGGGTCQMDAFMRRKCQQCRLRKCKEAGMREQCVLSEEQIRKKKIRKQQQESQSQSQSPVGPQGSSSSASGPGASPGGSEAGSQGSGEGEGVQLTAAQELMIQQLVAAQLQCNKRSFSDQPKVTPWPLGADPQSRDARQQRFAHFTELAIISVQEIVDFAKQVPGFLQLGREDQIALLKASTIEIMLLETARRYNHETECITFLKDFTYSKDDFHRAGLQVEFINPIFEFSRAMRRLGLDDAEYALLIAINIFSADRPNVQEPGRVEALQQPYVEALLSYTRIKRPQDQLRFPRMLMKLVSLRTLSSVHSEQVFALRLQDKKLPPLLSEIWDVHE

Kallikrein-7 = Kallikrein-7 (Homo sapiens, UniProt P49862); assay: Fluorescence Intensity-based biochemical primary high throughput dose response assay to identify activators of kallikrein-7 (K7) zymogen.
[13] = microbe, parasite or virus in culture; format: functional; details: Mycobacterium tuberculosis
[14] = Luminescence Cell-Based Dose Retest to Confirm Inhibitors of Cancer Stem Cells. [Related pubchem assays (depositor defined):AID2717, AID2721]; format: functional; details: Homo sapiens
cells [15] = format: functional, cell-based
[16] = biological target: T3, Trace amine-associated receptor 1 (Homo sapiens, UniProt Q96RJ0); assay: Fluorescence-based cell-based high throughput dose response assay to identify agonists of the human trace amine associated receptor 1 (TAAR1).; format: functional
T3 sequence (Q96RJ0 whole entry): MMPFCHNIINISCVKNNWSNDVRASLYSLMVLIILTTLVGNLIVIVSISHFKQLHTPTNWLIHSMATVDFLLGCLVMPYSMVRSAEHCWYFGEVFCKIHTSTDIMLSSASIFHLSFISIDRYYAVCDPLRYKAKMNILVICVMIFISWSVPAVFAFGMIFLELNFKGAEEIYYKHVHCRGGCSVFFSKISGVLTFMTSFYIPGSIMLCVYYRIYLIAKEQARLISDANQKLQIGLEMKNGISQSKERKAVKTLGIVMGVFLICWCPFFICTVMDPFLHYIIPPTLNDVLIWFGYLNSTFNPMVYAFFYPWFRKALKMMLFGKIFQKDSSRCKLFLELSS

[17] = biological target: T3, Trace amine-associated receptor 1; assay: Counterscreen for agonists of the human trace amine associated receptor 1 (hTAAR1): Fluorescence-based cell-based high throughput dose response assay to identify hTAAR1 agonist that also desensitize TAAR1 receptor response.; format: functional
cells [18] = format: functional, cell-based; remark: listed apart in the source
[19] = biological target: 5-hydroxytryptamine receptor 1A (Homo sapiens, UniProt P08908); format: functional
[20] = non-specific cell cytotoxicity, dose response, cytotoxicity control for PAX8 inhibitor project, plate reader, dry powder samples (AID 743021); format: functional, cell-based
[21] = inhibitors of intracellular T. cruzi replication, confirmation, NIH3T3 host cells, beta-gal luminescence (AID 2044); format: functional, cell-based;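 note: intracellular parasites grown in NIH/3T3 mouse fibroblasts as host cells; luminescent beta-galactosidase reporter signal from transgenic T. cruzi replicating inside host cells; inhibitors lower the luminescence signal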
[22] = Luminescence-based dose response cell-based high throughput screening assay for cytotoxic compounds using the IEC-6 intestinal epithelial cell line. [Related pubchem assays: 1858 (Summary AID.), 1825 (Counterscreen.), 1907 (Confirmation screen.)]; format: functional
[23] = cytotoxicity toward NIH3T3 fibroblasts, dose response, counter-screen, cell-based, ATP luminescence, mouse fibroblasts (AID 2010); format: functional;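 note: cells exposed to compound for about 90 hours before reading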
[24] = cytotoxicity in HEK-293T cells, dose response, cytotoxicity control for TCR NF-kB inhibitor project, luminescence, T-cell screen hits (AID 489026); format: functional, cell-based;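 note: cells exposed to compound about 14 hours before the viability readout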
cells [25] = assay: cells

Chain of Paired box protein Pax-8 (Q06710 whole entry): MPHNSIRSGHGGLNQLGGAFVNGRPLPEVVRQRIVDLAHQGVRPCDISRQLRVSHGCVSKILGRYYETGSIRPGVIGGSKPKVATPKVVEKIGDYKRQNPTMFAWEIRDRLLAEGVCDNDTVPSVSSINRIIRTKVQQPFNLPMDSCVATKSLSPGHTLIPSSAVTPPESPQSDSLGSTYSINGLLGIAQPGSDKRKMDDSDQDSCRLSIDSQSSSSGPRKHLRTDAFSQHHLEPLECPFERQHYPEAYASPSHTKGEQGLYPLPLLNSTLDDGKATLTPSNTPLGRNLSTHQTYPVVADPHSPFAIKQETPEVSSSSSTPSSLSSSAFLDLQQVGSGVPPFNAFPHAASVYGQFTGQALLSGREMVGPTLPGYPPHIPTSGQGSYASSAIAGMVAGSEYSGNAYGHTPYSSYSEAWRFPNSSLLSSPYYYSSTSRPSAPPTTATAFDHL
Chain of Disintegrin and metalloproteinase domain-containing protein 17 (P78536 whole entry, the tested form may be a part): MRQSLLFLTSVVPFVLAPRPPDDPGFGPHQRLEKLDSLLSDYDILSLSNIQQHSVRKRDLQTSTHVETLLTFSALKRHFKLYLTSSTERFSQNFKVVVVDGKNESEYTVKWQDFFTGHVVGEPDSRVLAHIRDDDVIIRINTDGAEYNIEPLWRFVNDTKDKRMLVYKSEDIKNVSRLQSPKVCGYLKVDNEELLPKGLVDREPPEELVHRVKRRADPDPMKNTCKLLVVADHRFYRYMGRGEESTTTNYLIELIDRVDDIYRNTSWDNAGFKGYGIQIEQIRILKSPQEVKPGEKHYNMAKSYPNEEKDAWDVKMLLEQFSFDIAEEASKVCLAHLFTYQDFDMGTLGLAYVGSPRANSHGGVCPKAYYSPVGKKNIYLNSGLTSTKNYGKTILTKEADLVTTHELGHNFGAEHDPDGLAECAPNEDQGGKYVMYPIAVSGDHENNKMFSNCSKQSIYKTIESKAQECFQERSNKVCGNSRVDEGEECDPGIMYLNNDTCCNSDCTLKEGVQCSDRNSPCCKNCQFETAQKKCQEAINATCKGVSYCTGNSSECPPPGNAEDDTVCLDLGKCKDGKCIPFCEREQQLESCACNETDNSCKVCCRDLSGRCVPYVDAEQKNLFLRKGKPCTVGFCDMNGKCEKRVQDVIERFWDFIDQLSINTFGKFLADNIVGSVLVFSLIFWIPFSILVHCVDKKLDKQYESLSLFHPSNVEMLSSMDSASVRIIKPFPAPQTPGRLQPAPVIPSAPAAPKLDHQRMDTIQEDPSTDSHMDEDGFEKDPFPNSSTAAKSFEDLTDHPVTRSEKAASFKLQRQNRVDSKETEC
Chain of 5-hydroxytryptamine receptor 1A (P08908 whole entry): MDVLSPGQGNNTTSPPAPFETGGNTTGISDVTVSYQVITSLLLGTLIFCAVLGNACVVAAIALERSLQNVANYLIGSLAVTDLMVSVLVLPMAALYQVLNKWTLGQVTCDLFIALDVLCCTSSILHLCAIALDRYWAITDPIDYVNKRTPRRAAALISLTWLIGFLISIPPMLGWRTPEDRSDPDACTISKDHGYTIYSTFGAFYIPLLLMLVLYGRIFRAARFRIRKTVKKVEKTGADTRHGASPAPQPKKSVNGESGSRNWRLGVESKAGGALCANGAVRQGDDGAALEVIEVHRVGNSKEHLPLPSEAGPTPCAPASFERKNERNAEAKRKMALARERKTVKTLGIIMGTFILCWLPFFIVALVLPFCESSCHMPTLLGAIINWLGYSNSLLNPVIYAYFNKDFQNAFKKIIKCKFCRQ
Chain of Kallikrein-7 (P49862 whole entry): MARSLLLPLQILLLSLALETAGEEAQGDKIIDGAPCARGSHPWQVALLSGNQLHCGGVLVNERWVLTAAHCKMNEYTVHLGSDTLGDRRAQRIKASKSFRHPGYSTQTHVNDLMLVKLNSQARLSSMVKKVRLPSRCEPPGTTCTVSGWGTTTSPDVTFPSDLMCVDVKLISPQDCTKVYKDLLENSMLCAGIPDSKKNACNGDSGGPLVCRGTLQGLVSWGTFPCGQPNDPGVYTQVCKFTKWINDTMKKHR
Chain of Eukaryotic translation initiation factor 4E (P63073 whole entry): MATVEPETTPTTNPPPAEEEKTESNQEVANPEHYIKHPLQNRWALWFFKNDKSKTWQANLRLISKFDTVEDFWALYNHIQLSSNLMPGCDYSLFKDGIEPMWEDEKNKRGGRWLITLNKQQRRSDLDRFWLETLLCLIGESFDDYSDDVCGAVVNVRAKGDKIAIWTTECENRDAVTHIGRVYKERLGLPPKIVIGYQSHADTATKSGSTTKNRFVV

In the case of `CNC(=O)N(O)C1N(C)C(=O)N(CC(=O)OC)C1(C)C` (stereo not given), the IC50 [1] is reported as > 100 µM (not active) and the EC50 (Troponin, cardiac muscle) is reported as > 71.5 µM (inactive).

In the case of `O=C(NC1=C(N2CCCCC2)C(=O)c2ccccc2C1=O)c1ccc(Br)cc1`, the AC50 [2] is reported as > 70 µM (inactive) and the AC50 [3] is reported as 50.3 µM (active).

With `CCCCC[C@@H](C)N1C[C@@H](COCc2ccccc2)Oc2cc(N3CC[C@H](O)C3)ccc2S1(=O)=O` the IC50 [4] was 11.3 µM (inactive) and the IC50 [5] was > 69.5 µM (inactive).

In the case of `COc1ccc(C(=O)NC2CCCc3c2cnn3-c2cc(F)cc(F)c2)c(OC)c1OC` (stereo not given), the EC50 (Transthyretin) is reported as > 167 µM (inactive).

For `Cc1c(C(=O)O)c(O)cc2c1C(=O)c1c(O)c([C@@H]3O[C@H](CO)[C@@H](O)[C@H](O)[C@H]3O)c(O)c(O)c1C2=O` [CARMINIC ACID], the IC50 [6] was 19.5 µM (active).

In the case of `NC(=O)c1c(NC(=O)CSc2nnc(-c3ccco3)n2-c2ccccc2)sc2c1CCC2`, the IC50 [1] is reported as 10.6 µM (active) and the IC50 [7] is reported as > 64 µM (inactive).

In the case of `O=[N+]([O-])c1cccnc1N1CCC(c2cc(-c3cccc(C(F)(F)F)c3)n[nH]2)CC1`, the IC50 [5] is reported as > 69.5 µM (inactive).

In the case of `C[C@@H]1CN([C@H](C)CO)C(=O)c2cc(NC(=O)Nc3ccc4c(c3)OCO4)ccc2O[C@@H](C)CCCCO[C@H]1CN(C)Cc1ccc(C(F)(F)F)cc1`, the AC50 (Paired box protein Pax-8) is reported as 8.35 µM (active), the AC50 [8] is reported as 11.6 µM (active) and the AC50 [9] is reported as 12.8 µM (active). For the same compound, the AC50 [10] was > 60 µM (inactive).

With `Cc1ccc(/C=N/Nc2nnc(Cl)c3ccccc23)cc1` the IC50 [11] was > 67.5 µM (inactive) and the EC50 [12] was > 67.5 µM (inactive).

With `COc1ccc(OC)c(/C=C/C(=O)N(C)CC(=O)Nc2ccc(N3CCOCC3)cc2)c1` the EC50 (Kallikrein-7) was > 69.5 µM (inactive).

With `C[C@@H]1CN([C@H](C)CO)C(=O)c2cc(NS(=O)(=O)c3ccc(Cl)cc3)ccc2O[C@@H](C)CCCCO[C@H]1CN(C)S(=O)(=O)c1ccc(F)cc1` the AC50 (Paired box protein Pax-8) was 2.46 µM (active), the AC50 [9] was 43.9 µM (active) and the AC50 [10] was > 70 µM (inactive).

With `O=[N+]([O-])c1cccnc1N1CCC(c2cc(-c3cccc(C(F)(F)F)c3)[nH]n2)CC1` the CC50 [13] was 28.7 µM (active), the AC50 [14] was 2.87 µM (active) and the IC50 [4] was 12.7 µM (inactive).

For `c1ccc(Cc2cnc(N3CCNCC3)nc2)cc1`, the IC50 (cells [15]) was > 29.9 µM (inactive), the EC50 [16] was 7.24 µM (active) and the IC50 [17] was > 29.9 µM (inactive). The EC50 (cells [18]) was > 29.9 µM (inactive).

With `CCN(CC)CCCCNC1=C(Nc2ccccc2)C(=O)c2ccccc2C1=O` the AC50 [2] was > 70 µM (inactive) and the AC50 [3] was > 70 µM (inactive).

For `CSc1nc2ccc(NC(=O)C3CCCO3)cc2s1` (stereo not given), the EC50 [19] was > 50 µM (not active).

In the case of `O=C(C[C@@H]1CC[C@H]2[C@@H](COC[C@@H](O)CN2Cc2cccc(F)c2)O1)NCC1CCCCC1`, the AC50 (Paired box protein Pax-8) is reported as 34 µM (active) and the AC50 [20] is reported as 61.8 µM (active).

With `COc1cc(-c2cc(=O)c3c(O)c(OC)c(OC)cc3o2)cc(OC)c1O` the IC50 [6] was > 80 µM (inactive).

In the case of `Cc1c(C(=O)N2CCc3ccccc32)cnn1C`, the EC50 (Transthyretin) is reported as > 167 µM (inactive).

In the case of `COc1ccccc1CCNS(=O)(=O)CCNC(=O)c1ccc2c(c1)OCO2`, the IC50 (cells [15]) is reported as > 29.9 µM (inactive), the EC50 [16] is reported as 4.48 µM (active) and the IC50 [17] is reported as 6.62 µM (active). For the same compound, the EC50 (cells [18]) was > 29.9 µM (inactive).

With `CC1CN(c2nnnn2-c2ccccc2)CC(C)O1` (stereo not given) the EC50 [19] was > 50 µM (not active).

In the case of `CCC(C)C(=O)N[C@@H](c1ccccc1)[C@@H](O)C(=O)O[C@H]1C[C@@]2(O)[C@@H](OC(=O)c3ccccc3)C3[C@](C)(C(=O)[C@H](OC(C)=O)C(=C1C)C2(C)C)[C@@H](O)C[C@H]1OC[C@@]31OC(C)=O` (stereo not given in full), the EC50 [21] is reported as < 0.1 µM (active), the IC50 [22] is reported as 0.244 µM (active) and the EC50 [23] is reported as 6.26 µM (active). The IC50 [24] was > 80 µM (inactive) and the EC50 (cells [25]) was 0.025 µM (active).
